# Experimental data: article PMC6640931 (ACS Omega, 2017)
# Values joined by “and” are separate entries in the source; they are usually repeats but may differ in a detail not shown here. Equal entries are not always repeated.
# How the values were obtained:
# [1] = Thermogravimetric analysis; type: physicochemical; settings: under nitrogen, 5 °C/min
# [2] = Equilibrium solubility in deionized water; settings: for solubility, acyclovir active: DI water (pH 6.92), room temperature; for solubility: DI water (pH = 6.92)
# [3] = Solubility in simulated body fluids; type: physicochemical
# [4] = cited from earlier work
# [5] = cited from earlier work; remark: listed apart in the source
SMILES,"T5% (decomposition of 5% of the sample), TGA [1] [°C]","solubility, acyclovir active [2]",solubility [2] [mg acyclovir active/mL],also measured
"Nc1nc2c(ncn2COCCO)c(=O)[nH]1 [acyclovir (3Acy·2H2O), 9-[(2-hydroxyethoxy)methyl]guanine, reference compound]",240.1,,,"solubility ([3]; simulated intestinal fluid (SIF), pH 6.8, thermodynamic from solid): 4440 µM and 1000 µg/mL; solubility in water ([4]; at 22–25 °C): 1200 to 1600 µg/mL"
C[N+](C)(C)CCO.Cc1ccc(C(=O)c2ccc(CC(=O)[O-])n2C)cc1 [choline tolmetin],,,,water solubility of choline salt relative to neutral form [4]: 8000 times
CC(C)[C@H](N)C(=O)OCCOCn1cnc2c(=O)[nH]c(N)nc21 [valacyclovir],,,,oral bioavailability [5]: ca. 55%; oral bioavailability relative to acyclovir [5]: 3 times

# More lines, main results first:
"T5% (decomposition of 5% of the sample), TGA [1] [°C]","solubility, acyclovir active [2]",solubility [2] [mg acyclovir active/mL],SMILES,also measured
131,,,"C[N+](C)(C)CCO.Nc1nc2c(ncn2COCCO)c(=O)[nH]1 [[Cho][Acy] (1), Choline Acyclovir]",
122.1,2.948(4) mg active/mL,2.9,"CCCCC(CC)COC(=O)CC(C(=O)OCC(CC)CCCC)S(=O)(=O)O.Nc1nc2c(ncn2COCCO)c(=O)[nH]1 (stereo not drawn) [[H2Acy][Doc] (6), Acyclovir Docusate]",
,101.3(5) mg active/mL,101.3,"CCCCCCCCCCCCCCCC[N+](C)(C)C.Nc1nc2c(ncn2COCCO)c(=O)[n-]1 [[N1,1,1,16][Acy] (4), Hexadecyltrimethylammonium Acyclovir]",
,213.7 mg active/mL,213.7,"CCCC[N+](CCCC)(CCCC)CCCC.Nc1nc2c(ncn2COCCO)c(=O)[n-]1 [[N4,4,4,4][Acy] (3), Tetrabutylammonium Acyclovir]","solubility, acyclovir active ([3]; PBS, pH 7.4): 220(20) mg active/mL; solubility, acyclovir active ([3]; SGF, pH 1.2): 170(20) mg active/mL; solubility, acyclovir active ([3]; SIF, pH 6.8): 140(10) mg active/mL; acyclovir active delivered relative to acyclovir itself ([3]; across the three media (PBS, SIF, SGF), depending on the medium): ca. 150 times"
